In data set [1] the test system is murine T-cell. Particulars: in vitro; cited from earlier work.
In data set [2] the test system is human peripheral blood lymphocytes. Put plainly: one-way mixed lymphocyte reaction (3H-thymidine uptake). In kind it is cell-based. The method, then:
The effect of varying concentrations of leflunomide product (A771726, Hoechst AG Werk Albert, Wiesbaden, Germany) in combination with varying concentrations of rapamycin (Wyeth-Ayerst Research, Rouses Point, N.Y.) was evaluated in a one-way mixed lymphocyte reaction (MLR) performed according to Kahan et al., Transplantation, 51:232 (1991). Briefly, human peripheral blood lymphocytes (2×10^5 per well) were incubated with an equal number of gamma-irradiated, allogeneic peripheral blood lymphocytes for 5 days in the presence of varying concentrations of leflunomide and rapamycin. The lymphocytes were then incubated for 16 to 20 hours with 1 μCi/well of ^3 H-thymidine. The amount of ^3 H-thymidine uptake was measured, and the percent inhibition of proliferation by each drug or drug combination was calculated. Data from two trials appear below in Tables 4 and 5.

In data set [3] the test system is cGvH disease or SLE. The note with it: mouse, U.S. Pat. No. 4,965,276; cited from earlier work.
In data set [4] the test system is heterotopic small intestinal transplantation. Particulars: cited from earlier work.
Data set [5] relates to murine B-cell. The note with it: in vitro; cited from earlier work.
The conditions of data set [6]: humans; cited from earlier work.
Data set [7] has as its system rejection of concordant hamster to rat cardiac xenografts. The note with it: earlier work, cited from earlier work.
In data set [8] the test system is renal allograft. The note with it: BN-LEW renal transplant; cited from earlier work.
Data set [9] relates to SLE in MRL/lpr mice. Particulars: at the end of 10 weeks, mice with elevated urine protein; cited from earlier work.

Where two headings read alike, the source gives them in different places.

Here are results for 7 molecules from patent publication US5688824A, “Use of leflunomide to prevent or control xenograft rejection” (priority 1996, dated 1997).

`C/C(O)=C(\C#N)C(=O)Nc1ccc(C(F)(F)F)cc1` [A771726, N-(4-trifluoromethylphenyl)-2-cyano-3-hydroxycrotonamide]: the “inhibition of murine T-cell proliferation” value in [1] was “inhibit murine B-cell and T-cell proliferation”. For the same molecule, the “% Inhibition of Lymphocyte Proliferation” value in data set [2] (12.50 μM Lef, 0.00 nM Rapa, Table 4) turned out to be 15.19%; in [2] (12.50 μM Lef, 0.00 nM Rapa, Table 5), 21.84%; in [2] (25.00 μM Lef, 0.00 nM Rapa, Table 4), 37.35%; in [2] (25.00 μM Lef, 0.00 nM Rapa, Table 5) it was 38.40%; in [2] (50.00 μM Lef, 0.00 nM Rapa, Table 4) it was 56.71%; in data set [2] (50.00 μM Lef, 0.00 nM Rapa, Table 5) it was 68.63%. For the same molecule, the “glomerulonephritis, anti-dsDNA titer, GvH index, T-lymphocyte proliferative ability” value in data set [3] is “prevented development of glomerulonephritis, reduced anti-dsDNA titer, decreased the GvH index (a measure of relative spleen enlargement), and improved the diminished proliferative ability of T-lymphocytes”. In addition, in data set [3], the “inhibition of development of cGvH disease or SLE” value was “effective in inhibiting the development of cGvH disease or SLE”. Besides, the survival of recipients in [4] (5 mg/kg/day by gavage for 7 days) was 15.0 ± 2.1 days; in [4] (5 mg/kg/day by gavage for 14 days) it was 21.2 ± 1.6 days; in data set [4] (5 mg/kg/day by gavage for 28 days), 33.8 ± 2.4 days. In addition, the “inhibition of murine B-cell proliferation” value in data set [5] is listed as “more potent inhibitor of B-cell proliferation”.

With `Nc1ccc(C(F)(F)F)cc1` [trifluoromethyl aniline], the “side effect of accumulation of the metabolite” value in data set [6] is “Heinz-body hemolytic anemia”.

For `O=P1(N(CCCl)CCCl)NCCCO1` (stereo not shown) [Cytoxan], in data set [7] (Cytoxan), the “control of xenograft rejection” value was “can completely control rejection of xenografts” and the “toxicity of required dose” value is “lethally toxic range”.

`Cn1cnc([N+](=O)[O-])c1Sc1ncnc2nc[nH]c12` [azathioprine]: the protection result in data set [8] is on record as “neither azathioprine nor prednisolone offered any protection”.

With `C=CC[C@@H]1/C=C(\C)C[C@H](C)C[C@H](OC)[C@H]2O[C@@](O)(C(=O)C(=O)N3CCCC[C@H]3C(=O)O[C@H](/C(C)=C/[C@@H]3CC[C@@H](O)[C@H](OC)C3)[C@H](C)[C@@H](O)CC1=O)[C@H](C)C[C@@H]2OC` [FK-506], in [7] (hamster to rat cardiac xenograft), the “effect on xenograft survival” value is “limited effect on xenograft survival even at lethal doses”.

For `C[C@]12C=CC(=O)C=C1CC[C@@H]1[C@@H]2[C@@H](O)C[C@@]2(C)[C@H]1CC[C@]2(O)C(=O)CO` [prednisolone], in [9], the animals still alive is given as 40%. The protection result in data set [8] was “neither azathioprine nor prednisolone offered any protection”.

Turning to `CO[C@H]1C[C@@H]2CC[C@@H](C)[C@@](O)(O2)C(=O)C(=O)N2CCCC[C@H]2C(=O)O[C@H]([C@H](C)C[C@@H]2CC[C@@H](O)[C@H](OC)C2)CC(=O)[C@H](C)/C=C(\C)[C@@H](O)[C@@H](OC)C(=O)[C@H](C)C[C@H](C)/C=C/C=C/C=C/1C` [rapamycin], the “% Inhibition of Lymphocyte Proliferation” value stood at 27.12% in data set [2] (0.010 nM Rapa, 0.00 μM Lef, Table 4); 4.78% in [2] (0.010 nM Rapa, 0.00 μM Lef, Table 5); 38.78% in [2] (0.050 nM Rapa, 0.00 μM Lef, Table 4); 37.75% in data set [2] (0.050 nM Rapa, 0.00 μM Lef, Table 5); 57.42% in data set [2] (0.100 nM Rapa, 0.00 μM Lef, Table 4); 51.71% in data set [2] (0.100 nM Rapa, 0.00 μM Lef, Table 5). For the same molecule, the “% Inhibition of Lymphocyte Proliferation” value is 89.25% in data set [2] (1.00 nM Rapa, 0.00 μM Lef, Table 4) and 80.83% in data set [2] (1.00 nM Rapa, 0.00 μM Lef, Table 5).
